# Measurements taken from ChEMBL document CHEMBL1201862, “PubChem BioAssay data set” (2004).
#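 Following 48 hours of exposure in 96-well plates, responses at five concentrations were used to interpolate endpoints linearly. Abbreviation: GI50, concentration required for 50% inhibition of growth.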 Active and inactive are the calls of the source. No stated cut-off is given here; in the data, active = GI50 up to about 1.1 µM and inactive = higher.
# Key:
# Experiment in all cases: NCI tumour cell line growth inhibition, 48 h
# [1] = test system: SNB-19
# [2] = test system: CAKI-1
# [3] = test system: SN12C
# [4] = test system: UACC-62
# [5] = test system: NCI-H226
# [6] = test system: HOP-62
# [7] = test system: SW-620
# [8] = test system: OVCAR-8
# [9] = test system: BT-549
# [10] = test system: RXF 393
# [11] = test system: OVCAR-5
# [12] = test system: PC-3
# [13] = test system: SK-MEL-28
# [14] = test system: NCI-H522
# [15] = test system: DU-145
# [16] = test system: HCC 2998
# [17] = test system: SF-268
# [18] = test system: MDA-N
# [19] = test system: IGROV-1
# [20] = test system: MCF7
# [21] = test system: SF-295
# [22] = test system: SNB-75
# [23] = test system: HT-29
# [24] = test system: COLO 205
# [25] = test system: NCI-H23
# [26] = test system: NCI-H460
# [27] = test system: 786-0
# [28] = test system: U-251
# [29] = test system: HCT-15
# [30] = test system: NCI/ADR-RES
# [31] = test system: MDA-MB-435
# [32] = test system: LOX IMVI
# [33] = test system: HCT-116
# [34] = test system: K562
# [35] = test system: EKVX
# [36] = test system: SK-OV-3
# [37] = test system: SF-539
# [38] = test system: ACHN
# [39] = test system: T47D
# [40] = test system: OVCAR-4
# [41] = test system: HOP-92
# [42] = test system: UACC-257
# [43] = test system: TK-10
# [44] = test system: CCRF-CEM
# [45] = test system: M14
# [46] = test system: UO-31
# [47] = test system: MOLT-4
# [48] = test system: Malme-3M
# [49] = test system: MDA-MB-231
# [50] = test system: OVCAR-3
# [51] = test system: KM12
# [52] = test system: A549
# [53] = test system: A498
compound,measurement,setting,value
COc1ccc([S+]([O-])Cc2cc(OC)ccc2OC)cc1 (stereo not drawn),GI50,[1],> 100 µM (inactive)
same,GI50,[2],> 100 µM (inactive)
same,GI50,[3],> 100 µM (inactive)
same,GI50,[4],> 100 µM (inactive)
same,GI50,[5],> 100 µM (inactive)
same,GI50,[6],> 100 µM (inactive)
same,GI50,[7],> 100 µM (inactive)
same,GI50,[8],> 100 µM (inactive)
same,GI50,[9],> 100 µM (inactive)
same,GI50,[10],> 100 µM (inactive)
same,GI50,[11],> 100 µM (inactive)
same,GI50,[12],> 100 µM (inactive)
same,GI50,[13],> 100 µM (inactive)
same,GI50,[14],> 100 µM (inactive)
same,GI50,[15],> 100 µM (inactive)
same,GI50,[16],> 100 µM (inactive)
same,GI50,[17],> 100 µM (inactive)
same,GI50,[18],> 100 µM (inactive)
same,GI50,[19],> 100 µM (inactive)
same,GI50,[20],> 100 µM (inactive)
same,GI50,[21],> 100 µM (inactive)
same,GI50,[22],> 100 µM (inactive)
same,GI50,[23],> 100 µM (inactive)
same,GI50,[24],> 100 µM (inactive)
same,GI50,[25],> 100 µM (inactive)
same,GI50,[26],> 100 µM (inactive)
same,GI50,[27],> 100 µM (inactive)
same,GI50,[28],> 100 µM (inactive)
same,GI50,[29],> 100 µM
same,GI50,[30],> 100 µM (inactive)
same,GI50,[31],> 100 µM (inactive)
same,GI50,[32],> 100 µM (inactive)
same,GI50,[33],> 100 µM (inactive)
same,GI50,[34],> 100 µM (inactive)
same,GI50,[35],> 100 µM (inactive)
same,GI50,[36],> 100 µM (inactive)
same,GI50,[37],> 100 µM (inactive)
same,GI50,[38],> 100 µM (inactive)
same,GI50,[39],> 100 µM (inactive)
same,GI50,[40],> 100 µM (inactive)
same,GI50,[41],> 100 µM (inactive)
same,GI50,[42],> 100 µM (inactive)
same,GI50,[43],> 100 µM (inactive)
same,GI50,[44],> 100 µM (inactive)
same,GI50,[45],> 100 µM (inactive)
same,GI50,[46],> 100 µM (inactive)
same,GI50,[47],> 100 µM (inactive)
same,GI50,[48],> 100 µM (inactive)
same,GI50,[49],> 100 µM (inactive)
same,GI50,[50],> 100 µM (inactive)
same,GI50,[51],> 100 µM (inactive)
same,GI50,[52],> 100 µM (inactive)
same,GI50,[53],> 100 µM (inactive)
